From patent US20100168149A1, “Camptothecin Analogue Compounds, a Process for Their Preparation and Pharmaceutical Compositions Containing Them” (priority 2005, published 2010)

Legend:
[1] = system: human colon carcinoma HT29; assay: In vitro cytotoxicity, Microculture Tetrazolium Assay, HT29; assay type: cell-based; details: HT-29, HT29, 96 hours exposure, read-out: IC50 (concentration of cytotoxic agent which inhibits proliferation of the treated cells by 50%)
Protocol: (§1) The murine leukaemia L1210 and the human colon carcinomas HCT116 and HT29 were used in vitro. The cells are cultured in RPMI 1640 complete culture medium containing 10% foetal calf serum, 2 mM glutamine, 50 units/ml of penicillin, 50 μg/ml of streptomycin and 10 mM Hepes, pH=7.4. The cells are distributed on microplates and are exposed to the cytotoxic compounds for 4 doubling times, that is to say 48 hours (L1210) or 96 hours (HCT116 and HT29). The number of viable cells is then quantified by a […] assay, the Microculture Tetrazolium Assay (J. Carmichael et al., Cancer Res.; 47, 936-942, (1987)). The results are expressed in terms of the IC50 (the concentration of cytotoxic agent which inhibits proliferation of the treated cells by 50%).

murine leukaemia L1210 = assay: In vitro cytotoxicity, Microculture Tetrazolium Assay, L1210; assay type: cell-based; details: Mus musculus; L1210, 48 hours exposure; read-out: IC50 (concentration of cytotoxic agent which inhibits proliferation of the treated cells by 50%)
Protocol: as §1

Row | SMILES | IC50 [1] [nM] | IC50 (murine leukaemia L1210) [nM]
1 | CCC1(O)C(=O)Cc2c1cc1n(c2=O)Cc2c-1nc1cc3c(cc1c2-c1ccc(C)cc1)OCO3 (stereo not drawn) [Example 1, 7-Ethyl-7-hydroxy-2,3-methylenedioxy-13-(4-methylphenyl)-9,12-dihydro-7H-cyclopenta[6,7]indolizino[1,2-b]quinoline-8,10-dione] | 3.2 | 
2 | CCC1(O)C(=O)Cc2c1cc1n(c2=O)Cc2c-1nc1cc3c(cc1c2-c1ccc(N(C)C)cc1)OCO3 (stereo not drawn) [Example 6, 7-Ethyl-2,3-methylenedioxy-7-hydroxy-13-[4-(dimethylamino)phenyl]-9,12-dihydro-7H-cyclopenta[6,7]indolizino[1,2-b]quinoline-8,10-dione] | 4.7 | 10.4
